Measured values as given in patent US20050209278A1, “Piperidinyl- and piperazinyl-sulfonylmethyl hydroxamic acids and their use as protease inhibitors” (priority 2002, published 2005).
Where a name gives a salt, the structure may show the parent alone. Read-outs that look alike come from different tables or passages of the source.

Columns and labels:
MMP-2 = target: T1, MMP-2 (Homo sapiens, UniProt P08253); assay: In vitro MMP inhibition, Ki determination (fluorogenic substrate II); format: biochemical; conditions: read-out: MMP-2 Ki
T1 construct: made in house; host or cells: MMP-2-transfected p2AHT2 cells
T1 sequence (P08253 110-660): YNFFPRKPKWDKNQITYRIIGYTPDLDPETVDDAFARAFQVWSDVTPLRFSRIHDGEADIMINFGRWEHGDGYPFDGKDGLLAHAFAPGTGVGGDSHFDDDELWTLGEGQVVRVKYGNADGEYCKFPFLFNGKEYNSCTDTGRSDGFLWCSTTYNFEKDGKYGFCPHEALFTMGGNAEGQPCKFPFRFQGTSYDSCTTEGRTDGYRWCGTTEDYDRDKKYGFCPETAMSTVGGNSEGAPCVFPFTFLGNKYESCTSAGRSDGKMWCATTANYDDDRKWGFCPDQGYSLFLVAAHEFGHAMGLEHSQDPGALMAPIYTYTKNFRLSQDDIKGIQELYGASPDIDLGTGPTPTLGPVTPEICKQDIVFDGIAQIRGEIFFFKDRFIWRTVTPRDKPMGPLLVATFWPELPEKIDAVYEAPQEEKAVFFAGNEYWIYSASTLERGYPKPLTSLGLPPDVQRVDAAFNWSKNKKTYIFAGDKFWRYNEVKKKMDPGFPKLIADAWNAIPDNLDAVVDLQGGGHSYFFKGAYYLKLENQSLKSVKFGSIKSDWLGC
Procedure: (§1) Several hydroxamic acids and salts thereof were analyzed in in vitro assays to determine their ability to inhibit the MMP cleavage of peptide substrates. […] and IC50 constants were calculated from the assayed hydroxamic acid-MMP interactions.
(§2) Human recombinant MMP-1, MMP-2, MMP-9, MMP-13, and MMP-14 were used in this assay. All enzymes were prepared in Assignee's laboratories following usual laboratory procedures. Protocols for the preparation and use of these enzymes are available in the scientific literature. See, e.g., Enzyme Nomenclature (Academic Press, San Diego, Calif., 1992) (and the citations therein). See also, Freije et al., “Molecular cloning and expression of collagenase-3, a novel human matrix metalloproteinase produced by breast carcinomas,” J Biol. Chem., 269(24), 16766-16773 (1994).
The MMP-2 proenzyme was purified by gelatin Sepharose chromatography from MMP-2-transfected p2AHT2 cells provided by Dr. Gregory Goldberg of Washington University (St. Louis, Mo.).
(§3) All MMPs were activated using 4-aminophenylmercuric acetate (“APMA”, Sigma Chemical, St. Louis, Mo.) or trypsin. MMP-9 also was activated using human recombinant MMP-3 (purified in Assignee's laboratory following standard cloning and purification techniques).
(§4) Two fluorogenic, methoxycoumarin-containing polypeptide substrates were used in the MMP inhibition assays: [drawing 427] Here, “Dpa” is 3-(2,4-dinitrophenyl)-L-2,3-diaminopropionyl group, and “MCA” is 7-methoxycoumarin-4-yl acetyl. Substrate (I) was purchased from Baychem (Redwood City, Calif.), and substrate II was prepared Assignee's laboratory. Substrate I was used in the IC50 determination assays, while substrate II was used in the Ki determination assays. In the absence of MMP inhibitory activity, either substrate is cleaved at the Gly-Leu peptide bond. This cleavage separates the highly fluorogenic peptide from the 2,4-dinitrophenyl quencher, thus resulting in increase of fluorescent intensity.
(§5) The stock solutions of the assayed hydroxamic acids (or salts thereof) were prepared in 1% dimethyl sulfoxide (DMSO). These stock solutions were diluted in Buffer A (100 mM Tris-HCl, 100 mM NaCl, 10 mM CaCl2, 0.05% polyoxyethylene 23 lauryl ether, pH 7.5) to obtain solutions with different hydroxamic acid concentrations, i.e., assay solutions with different concentrations of the assayed MMP inhibitory compound. The experiment controls contained the same amount of Buffer A/DMSO as the assayed sample, but contained no hydroxamic acid (or salt thereof).
The assays from which the Ki determinations were made were performed as follows. The assayed hydroxamic acid samples were incubated in separate wells of untreated white polystyrene plates (Nunc Nalgene International, Rochester, N.Y.), and analyzed on a Tecan SpectraFlour Plus plate reader. The excitation wavelength was 330 nm, and the emission wavelength—420 nm. All samples (assayed hydroxamic acids and controls) were incubated in separate plate wells at room temperature for 1 hr in the presence of 4 μM of MMP substrate (II). In the absence of MMP inhibitory activity, substrate II was cleaved at the Gly-Leu bond resulting in an increase of relative fluorescence. Inhibition was observed as a reduced rate of this increase in relative fluorescence. The various hydroxamic acids were analyzed using a single low enzyme concentration with a single substrate concentration fixed at or below the Km. This protocol is a modification of method by Knight et al., FEBS Lett., 296(3), 263-266 (1992). Apparent inhibitory constants were determined by non-linear regression of reaction velocity as a function of inhibitor and enzyme concentration using Morrison's equation, as described by Kuzmic, Anal. Biochem. 286, 45-50 (2000). […] Since the substrate concentration was chosen to be at or below the Km, the apparent Ki's from this analysis were reported as Ki's without correction for the influence of substrate.

MMP-14 = target: T2, MMP-14 (Homo sapiens, UniProt P50281); assay: as above; format: biochemical; conditions: read-out: MMP-14 Ki
T2 construct: The catalytic domain enzyme was expressed in E. coli inclusion bodies, solubilized in urea; made in house
Procedure: as §1, §2
The MMP-14 full length cDNA was provided by Dr. Gregory Goldberg of Washington University (St. Louis, Mo.). The catalytic domain enzyme was expressed in E. coli inclusion bodies, solubilized in urea, purified on a preparative […] reverse phase HPLC column, and then refolded in the presence of zinc acetate and purified for use.
as §3, §4, §5
The assays from which the Ki determinations were made were performed as follows. The assayed hydroxamic acid samples were incubated in separate wells of untreated white polystyrene plates (Nunc Nalgene International, Rochester, N.Y.), and analyzed on a Tecan SpectraFlour Plus plate reader. The excitation wavelength was 330 nm, and the emission wavelength—420 nm. All samples (assayed hydroxamic acids and controls) were incubated in separate plate wells at room temperature for 1 hr in the presence of 4 μM of MMP substrate (II). In the absence of MMP inhibitory activity, substrate II was cleaved at the Gly-Leu bond resulting in an increase of relative fluorescence. Inhibition was observed as a reduced rate of this increase in relative fluorescence. The various hydroxamic acids were analyzed using a single low enzyme concentration with a single substrate concentration fixed at or below the Km. This protocol is a modification of method by Knight et al., FEBS Lett., 296(3), 263-266 (1992). Apparent inhibitory constants were determined by non-linear regression of reaction velocity as a function of inhibitor and enzyme concentration using Morrison's equation, as described by Kuzmic, Anal. Biochem. 286, 45-50 (2000).

[1] = human recombinant enzyme, 4 μM substrate II, room temperature, 1 hr
[2] = human recombinant enzyme (catalytic domain), 4 μM substrate II, room temperature, 1 hr

Ki (MMP-2; [1]) [nM]	Ki (MMP-14; [2]) [nM]	Ki (MMP-2; value not in parenthesis) [nM]	Ki (MMP-14; value not in parenthesis) [nM]	Compound
0.89	2960	–	–	CCCCCc1ccc(C2CCN(S(=O)(=O)C3(C(=O)NO)CCN(CCOC)CC3)CC2)cc1 [Example 15, N-hydroxy-1-(2-methoxyethyl)-4-{[4-(4-pentylpheyl)piperidin-1-yl]sulfonyl}piperidine-4-carboxamide Hydrochloride]
0.62	1550	–	–	CCCCc1ccc(N2CCN(S(=O)(=O)C3(C(=O)NO)CCN(CCOC)CC3)CC2)cc1 [Example 5, 4-{[4-(4-butylphenyl)piperazin-1-yl]sulfonyl}-N-hydroxy-1-(2-methoxyethyl)piperidine-4-carboxamide Dihydrochloride]
–	–	0.251	2120	CC(C)CCc1ccc(N2CCN(S(=O)(=O)C3(C(=O)NO)CCOCC3)CC2)nc1 [Example 133]
–	–	1.19	4380	COCCN1CCC(C(=O)NO)(S(=O)(=O)N2CCN(c3ccc(OCC(F)(F)F)cc3)CC2)CC1 [Example 119]
–	–	0.508	1300	CCCCOc1ccc(N2CCN(S(=O)(=O)C3(C(=O)NO)CCN(c4ccc(OCCOC)nn4)CC3)CC2)cc1 [Example 129]
–	–	0.4	2330	CCCCOc1ccc(N2CCN(S(=O)(=O)C3(C(=O)NO)CCN(C(=O)OCCF)CC3)CC2)cc1 [Example 113]
–	–	0.193	> 10000	CCCCOc1ccc(N2CCN(S(=O)(=O)C3(C(=O)NO)CCN(C(=O)N4CCOCC4)CC3)CC2)cc1 [Example 124]
–	–	4.31	8030	CC(C)(C)N1CCC(C(=O)NO)(S(=O)(=O)N2CCN(c3ccc(OCCCC(F)(F)F)cc3F)CC2)CC1 [Example 116]
–	–	1.2	158	O=C1c2ccccc2C(=O)N1CCCCc1ccc(N2CCN(S(=O)(=O)C3(C(=O)NO)CCOCC3)CC2)nc1 [Example 132]
0.74	1940	–	–	O=C(NO)C1(S(=O)(=O)N2CCN(c3ccc(OCC(F)(F)F)cc3)CC2)CCOCC1 [Example 2, N-hydroxy-4-({4-[4-(2,2,2-trifluoroethoxy)phenyl]piperazin-1-yl}sulfonyl)tetrahydro-2H-pyran-4-carboxamide Hydrochloride]
–	–	4.25	8650	CCCCOc1ccc(N2CCN(S(=O)(=O)C3(C(=O)NO)CCN(c4nc5ccccc5o4)CC3)CC2)cc1 [Example 150]
1.98	468	–	–	COc1ccc(-c2cnc(N3CCN(S(=O)(=O)C4(C(=O)NO)CCOCC4)CC3)nc2)cc1 [Example 8, N-hydroxy-4-({4-[5-(4-methoxyphenyl)pyrimidin-2-yl]piperazin-1-yl}sulfonyl)tetrahydro-2H-pyran-4-carboxamide Hydrochloride]
0.549	3520	–	–	CCCCCc1ccc(N2CCN(S(=O)(=O)C3(C(=O)NO)CCN(CCOC)CC3)CC2)cc1F [Example 13, 4-{[4-(3-fluoro-4-pentylphenyl)piperazin-1-yl]sulfonyl}-N-hydroxy-1-(2-methoxyethyl)piperidine-4-carboxamide Dihydrochloride]
–	–	0.978	2630	CCCCOc1ccc(N2CCN(S(=O)(=O)C3(C(=O)NO)CCN(c4ccc(OC)nc4)CC3)CC2)cc1 [Example 142]
–	–	8.97	> 10000	CCCCOc1ccc(N2CCN(S(=O)(=O)C3(C(=O)NO)CCN(C(=O)c4cc5ccccc5s4)CC3)CC2)cc1 [Example 143]
–	–	6.41	8660	CCCCc1ccc(N2CCN(S(=O)(=O)C3(C(=O)NO)CCN(c4ccc(C)cc4)CC3)CC2)cc1 [Example 146]
–	–	1.25	7130	COCCN1CCC(C(=O)NO)(S(=O)(=O)N2CCN(c3ccc(OCCCC(F)(F)F)cc3F)CC2)CC1 [Example 102]
–	–	0.266	1140	CCCCOc1ccc(N2CCN(S(=O)(=O)C3(C(=O)NO)CCN(C(=O)OCCOC)CC3)CC2)cc1 [Example 141]
–	–	0.785	5380	CC(C)CCOc1ccc(N2CCN(S(=O)(=O)C3(C(=O)NO)CCN(C4CC4)CC3)CC2)cc1 [Example 128]
–	–	2.18	1260	CCCCOc1ccc(N2CCN(S(=O)(=O)C3(C(=O)NO)CCN(c4cc(C)ccn4)CC3)CC2)cc1 [Example 139]
–	–	49.6	> 10000	CCCCCCCCCc1cnc(N2CCN(S(=O)(=O)C3(C(=O)NO)CCOCC3)CC2)nc1 [Example 111]
0.52	4340	–	–	O=C(NO)C1(S(=O)(=O)N2CCN(c3ccc(OCC4CC4)c(F)c3)CC2)CCN(C2CC2)CC1 [Example 10, 1-cyclopropyl-4-[[4-[4-(cyclopropylmethoxy)-3-fluorophenyl]-1-piperazinyl]sulfonyl]-N-hydroxy-4-piperidinecarboxamide, dihydrochloride]

Compound	Ki (MMP-2; [1]) [nM]	Ki (MMP-14; [2]) [nM]	Ki (MMP-2; value not in parenthesis) [nM]	Ki (MMP-14; value not in parenthesis) [nM]
O=C(NO)C1(S(=O)(=O)N2CCN(c3ccc(OCCCC(F)(F)F)cc3)CC2)CCOCC1 [Example 7, N-hydroxy-4-({4-[4-(4,4,4-trifluorobutoxy)phenyl]piperazin-1-yl}sulfonyl)tetrahydro-2H-pyran-4-carboxamide Hydrochloride]	0.497	4330	–	–
CCCCOc1ccc(N2CCN(S(=O)(=O)C3(C(=O)NO)CCN(CCOC)CC3)CC2)cc1F [Example 11, 4-[[4-(4-butoxy-3-fluorophenyl)-1-piperazinyl]sulfonyl]-N-hydroxy-1-(2-methoxyethyl)-4-piperidinecarboxamide, Dihydrochloride]	0.71	3600	–	–
